# Laboratory results taken from patent US12371664B2, “Medium for direct differentiation of pluripotent stem cell-derived mesenchymal stem cell, method for preparing mesenchymal stem cell by using same, and mesenchymal stem cell prepared thereby” (CHA BIOTECH CO., LTD., priority 2018, dated 2025).
# How the values were obtained:
# [1] = test system: transcription factor required for endodermal differentiation / mesodermal differentiation; details: background art; cited from earlier work
# [2] = test system: human embryonic stem cells; experiment: Analysis of cytomorphological features (spindle shape) under a phase-contrast microscope; type: cell-based; details: FIG. 10; 10 μM RS1, 10 μM Y27632, 1 μM SB431542 as applicable
# Source text: For analysis of cytomorphological features of mesenchymal stem cells obtained in Example 1 and Comparative Example 1, a mesenchymal stem cell-specific proliferation pattern (spindle shape) was identified under a phase-contrast microscope (Nikon TE-2000), and the results are shown in FIGS. 2 and 3, respectively.
# For analysis of cytomorphological difference by treatment with the DNA repair agent or the ROCK inhibitor alone on the basis of period, morphologies of cells of Example 1 and Comparative Examples 2 and 3 were analyzed in the same manner as in Experimental Example 1. As a control, cells treated with the TGF-β inhibitor SB431542 alone without being treated with both the DNA repair agent and the ROCK inhibitor were used, and the results are shown in FIG. 10.
compound,measurement,setting,value
"NC(=O)c1ccc(-c2nc(-c3ccc4c(c3)OCO4)c(-c3ccccn3)[nH]2)cc1.O [SB431542, 4-[4-(1,3-benzodioxol-5-yl)-5-(2-pyridinyl)-1H-imidazol-2-yl]-benzamide hydrate]",concentration having effects on inhibiting the transcription factor for endodermal differentiation and increasing that for mesodermal differentiation,[1],≥ 1 µM
same,cytomorphological observation (mesenchymal stem cell proliferation pattern of the spindle shape),[2],most of the cells disappeared on the 30th day and uniformity deteriorated
